# Reference: patent US8093288B2, “Genipin derivatives and uses thereof” (Beth Israel Deaconess Medical Center, priority 2003, dated 2012)
# Columns and labels:
# UCP2 = molecular target: T1, UCP2 (Mus musculus, UniProt P70406); assay: Proton leak titration in isolated kidney mitochondria of wildtype mice with superoxide-generating system; format: biochemical; details: 50 μM genipin with 50 mM xanthine and 0.2 mU/3.5 mL xanthine oxidase, FIG. 2
# T1 construct: Wildtype and UCP2 knockout mice were used for isolation of kidney mitochondria; from tissue; host or cells: kidney mitochondria of wildtype mice
# T1 sequence (P70406 1-309): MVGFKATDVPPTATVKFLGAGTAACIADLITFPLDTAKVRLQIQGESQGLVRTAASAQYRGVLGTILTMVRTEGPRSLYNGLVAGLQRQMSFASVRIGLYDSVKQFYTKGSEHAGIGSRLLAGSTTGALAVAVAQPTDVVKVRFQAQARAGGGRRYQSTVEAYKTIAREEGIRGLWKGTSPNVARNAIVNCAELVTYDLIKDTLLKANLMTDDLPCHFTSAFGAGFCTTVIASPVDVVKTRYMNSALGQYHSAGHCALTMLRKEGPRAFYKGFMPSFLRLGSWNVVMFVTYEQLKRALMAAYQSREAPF
# [1] = tested on: kidney mitochondria of UCP2 knockout mice; assay: Proton leak titration in isolated kidney mitochondria of UCP2 knockout mice with superoxide-generating system; format: biochemical; details: 50 μM genipin with 50 mM xanthine and 0.2 mU/3.5 mL xanthine oxidase, FIG. 3
# Experimental: FIG. 3 is a graph showing the effect of genipin on superoxide-activated, UCP2-dependent proton leak in isolated kidney mitochondria of UCP2 knockout mice. Proton leak titration was performed in the presence of a superoxide-generating system (xanthine plus xanthine oxidase) essentially as described (Echtay et al. 2002, Nature 415, 96-99). Graphs show the rate of proton leak as a function of its driving force, mitochondrial membrane potential. ♦, control; ▪, xanthine (50 mM) plus xanthine oxidase (0.2mU/3.5 ml). Δ, xanthine/xanthine oxidase plus 50 μM genipin. Mitochondria were incubated with genipin in the oxygen electrode for 5 minutes before xanthine oxidase was added (to initiate the generation of superoxide). Western-blot analysis confirmed that there was no UCP2 protein in mitochondria from UCP2 knockout mice. Data are means +/−S.E.M. of four independent experiments.
# Wildtype and UCP2 knockout mice were used for isolation of kidney mitochondria. Fresh tissues were minced in ice-cold STE buffer (250 mM sucrose, 5 mM Tris, 2 mM EGTA, pH 7.4 at 4° C.), and disrupted in a Dounce homogenizer. Cell debris was removed by centrifugation of the homogenate at 500×g for 3 min. The supernatant was centrifuged at 10,000×g for 8 min., and the mitochondrial pellet was resuspended in ice-cold STE buffer. Mitochondria were subjected to another cycle of centrifugation at 750 and 10,000×g. […]
# [2] = tested on: islets from ob/ob mice lacking UCP2; assay: Glucose-stimulated insulin secretion in islets from ob/ob mice lacking UCP2; format: cell-based; details: 5 μM genipin, FIG. 12C
# Experimental: Pancreatic islets were isolated from WT (FIG. 12A) or UCP2 KO mice (FIG. 12B) and subjected to chronic incubations at low (5.5 mM) and high glucose (25 mM). In a separate experiment, islets were isolated from ob/ob mice (FIG. 12C). Islets were incubated for a total of 72 hours and washed, and then insulin-secretion studies were performed using three different concentrations of glucose (5.5, 12.5, and 25 mM) with or without 5 μM genipin. Results are means±SEM of four independent experiments (FIGS. 12A and 12B) or eight to twenty repeats of one representative experiment (FIG. 12C). WT islets that were chronically incubated at low glucose released increasing amounts of insulin in response to increasing concentrations of glucose (FIG. 12A, left panel). Following chronic hyperglycemia, islets increased basal insulin release, but were completely unresponsive to glucose stimulation (FIG. 12A, middle panel). […] To assess the role of genipin in hyperglycemia-induced loss of glucose responsiveness, genipin was acutely added into islets during the insulin-release phase of the study. […] Insulin secretion in islets from ob/ob mice and ob/ob mice lacking UCP2 with or without genipin was also studied. It has been reported that in ob/ob islets, UCP2 expression levels are increased compared to WT islets. […]
# [3] = tested on: WT mice on chow diet, WT mice on high fat diet, ob/ob mice; assay: Serum insulin in vivo after genipin injection in WT (chow, HFD) and ob/ob mice; details: WT chow (6 hours fasting, 10 mg/kg), WT HFD (20 hours fasting, 10 mg/kg), ob/ob (20 hours fasting, 20 mg/kg); injected; FIGS. 13A-C
# Experimental: UCP2-deficient mice have increased serum insulin levels. Genipin inhibits UCP2 activity, and thus should stimulate insulin secretion acutely in vivo. In the present study, the effect of genipin on insulin secretion in vivo was assessed. WT and UCP2 KO mice were fed a chow diet (FIG. 13A), or placed on a high fat diet (HFD) (FIG. 13B) (#D12331, obtained from Research Diets Inc., New Brunswick, N.J.). The fat source was coconut oil and comprised 58% of the total calories. The mice remained on the HFD for 24 weeks. Both WT and KO mice were obese (50-60 g). ob/ob mice (FIG. 13C) were obtained from The Jackson Laboratory. After 6 hours (FIG. 13A) or 20 hours (FIGS. 13B and 13C) of fasting, genipin (10 mg/kg (FIGS. 13A and 13B), or 20 mg/kg (FIG. 13C)) was injected into the mice. Serum insulin levels were measured before and after administration of genipin as indicated.
structure (smiles),measurement,setting,value
COC(=O)C1=CO[C@@H](O)[C@@H]2C(CO)=CC[C@H]12 [genipin],rate of proton leak as a function of mitochondrial membrane potential,UCP2,proton leak occurred at nearly the same mitochondria membrane potential as in the control
same,rate of proton leak as a function of mitochondrial membrane potential,[1],proton leak occurred at approximately the same membrane potential as that observed for kidney mitochondria from UCP2 knockout mice exposed to the superoxide-generating system alone
same,glucose sensing (glucose-stimulated insulin secretion),[2],did not improve glucose sensing above the level seen in islets lacking UCP2 alone
same,serum insulin levels,[3],can increase insulin levels in all three animal models
